Data: patent US9802976B2, “Method for preparing substituted 3,7-dihydroxy steroids” (NeurMedix, Inc., priority 2008, dated 2017)
Marks after values point to notes of the source that are not given here.

Tests used:
[1] = tested on: estrogen receptors; experiment: Binding capacity of impurities to estrogen receptors; set-up: species or system human; details: impurities in Compound 1 from Process A, Route 1 after recrystallization; directly or from the product after ester hydrolysis
Experimental: (§1) Estrogen receptor binding assay: A suitable example system is an estrogen receptor-kit manufactured by PanVera for ERIβ, which contains recombinant estrogen receptor β ligand, FLUORMONE™ ES2 (ES2), a fluorescently labeled estrogen ligand, and appropriate buffer. […] When bound to ERβ, ES2 tumbles slowly and has a high fluorescence polarization value.
(§2) The competition assay was conducted according to the manufacturer's protocol (Lit. No. L0712, Rev. 10/03). Assay reagents used were bacculovirus expressed, full length human ERβ […] in 50 mM Bis-Tris Propane (pH=9), 400 mM KCl, 2 mM DTT, 1 mM EDTA, 10% glycerol, ES2 400 nM in methanol and E2 screening buffer consisting of 100 mM potassium phosphate (pH=7.4), 100 μg/mL BGG, 0.02% NaN3. The ES2-ERβ complex was formed with 20 μL 20 nM ERβ (0.020 pmol/μL) and 20 μL 2 nM ES2 (0.002 pmol/μL). Positive control (estrogen) solution was prepared using 20 μL of a 1.0 mM stock solution in DMSO and 80 μL DMSO. In a first dilution, 50 μL of this solution is added to 50 μL of DMSO, which is followed by dilutions in 2-fold increments, to provide for a 14 point dilution curve. In a second dilution, to 4 μL of each DMSO solution from the first dilution is added 400 μL of ES2 screening buffer. […] Fluorescence polarization values are obtained using 485 nm excitation and 530 nm emission interference filters. […]

[2] = molecular target: T1, ERα (Homo sapiens, UniProt P03372); experiment: Estrogen receptor binding assay (fluorescence polarization competition), ERα
T1 construct: bacculovirus expressed, full length human 2.8 pmol/μL ERα was used as reagent; purchased PanVera; host or cells: baculovirus expression system
T1 sequence (P03372 whole entry): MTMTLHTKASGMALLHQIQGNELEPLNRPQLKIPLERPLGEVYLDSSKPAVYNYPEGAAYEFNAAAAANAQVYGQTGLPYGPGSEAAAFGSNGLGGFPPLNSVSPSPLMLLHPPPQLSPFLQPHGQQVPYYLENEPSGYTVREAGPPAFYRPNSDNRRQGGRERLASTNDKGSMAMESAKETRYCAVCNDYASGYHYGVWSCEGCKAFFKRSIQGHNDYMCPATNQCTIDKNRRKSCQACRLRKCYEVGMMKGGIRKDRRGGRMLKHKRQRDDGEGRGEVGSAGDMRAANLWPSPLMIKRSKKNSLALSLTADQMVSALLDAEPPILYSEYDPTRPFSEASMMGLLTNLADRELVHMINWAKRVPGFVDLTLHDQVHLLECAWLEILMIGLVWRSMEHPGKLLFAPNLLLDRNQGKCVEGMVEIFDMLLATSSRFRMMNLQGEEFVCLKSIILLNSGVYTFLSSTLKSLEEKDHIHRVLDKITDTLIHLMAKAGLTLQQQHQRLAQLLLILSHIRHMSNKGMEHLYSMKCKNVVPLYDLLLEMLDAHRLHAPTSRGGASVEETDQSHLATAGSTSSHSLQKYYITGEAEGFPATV

[3] = molecular target: T2, ERβ (Homo sapiens, UniProt Q92731); experiment: Estrogen receptor binding assay (fluorescence polarization competition), ERβ
T2 construct: Assay reagents used were bacculovirus expressed, full length human ERβ; purchased PanVera; host or cells: baculovirus expression system
T2 sequence (Q92731 whole entry): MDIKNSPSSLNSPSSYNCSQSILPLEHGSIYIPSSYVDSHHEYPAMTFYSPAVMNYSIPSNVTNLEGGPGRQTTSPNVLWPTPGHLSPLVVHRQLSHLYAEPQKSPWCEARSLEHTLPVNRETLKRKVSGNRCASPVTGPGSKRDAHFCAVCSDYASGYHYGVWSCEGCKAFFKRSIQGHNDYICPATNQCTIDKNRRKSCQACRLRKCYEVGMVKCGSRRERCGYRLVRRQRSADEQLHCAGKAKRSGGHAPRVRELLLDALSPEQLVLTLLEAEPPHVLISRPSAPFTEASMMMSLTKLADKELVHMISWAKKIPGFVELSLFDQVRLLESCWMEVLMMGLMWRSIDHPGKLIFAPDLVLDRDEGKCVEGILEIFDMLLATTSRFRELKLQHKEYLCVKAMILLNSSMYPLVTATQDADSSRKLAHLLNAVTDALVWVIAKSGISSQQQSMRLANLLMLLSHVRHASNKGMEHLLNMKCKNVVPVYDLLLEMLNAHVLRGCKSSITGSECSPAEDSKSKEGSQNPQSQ
Experimental: as §1, §2

[4] = tested on: nuclear sex steroid receptors; experiment: Binding activity at nuclear sex steroid receptors; details: essentially free defined in b31 as Ki>10 μM
From the text: The term “binding activity” refers to the ability of a specified compound, a preparation comprising Compound 1 or impurity (or impurities) in a preparation of Compound 1 to bind to or associate with a receptor, typically a sex steroid receptor such as an androgen receptor or an estrogen receptor to effect or modulate the receptor's biological activity. Binding is usually measured in assays as the capacity of a compound, usually an impurity in a preparation comprising Compound 1, to displace a physiologically relevant ligand of a receptor (i.e., reference ligand) that is bound to that receptor in a competition assay. The reference ligand is typically a natural ligand of the receptor or an agonist of the receptor that has been labeled with a radioactive or spectroscopic probe whose presence may be queried by scintillation counting or by a spectroscopic method such as fluorescence emission or fluorescence polarization.
The radioactive probe is typically ^3H and/or ^14C, where radioactive atom(s) have replaced one or more of atoms of the ligand at positions where loss of the radiolabel would not occur to an extent under conditions of the assay that would complicate or confound interpretation of the assay results. […]

[5] = Estrogenic effects seen with Compound 1 prepared by Process A; details: Compound 1 preparation made by Process A, Route 1 (contains 17α-ethynyl-androst-5-ene-3β,17β-diol impurity)
[6] = Compound 1 essentially free of the 3β,17β-diol impurity, tested to 10 μM

Row | SMILES | binding capacity to estrogen receptors [1] | binding activity at the estrogen receptor ERα ([2]; receptor binding studies) | binding activity at the estrogen receptor ERβ ([3]; receptor binding studies) | activity at the estrogen receptor ERα [2, 6] | activity at the estrogen receptor ERβ [3, 6] | binding activity at nuclear sex steroid receptors [4] | estrogenic effects [5]
1 | C#CC1(O)CCC2C3CC=C4CC(OC(C)=O)CCC4(C)C3CCC21C (stereo not drawn) [17α-ethynyl-3β-acetoxy-androst-5-ene-17β-diol] | 0.05** |  |  |  |  |  | 
2 | C#CC1(O)CCC2C3CC=C4CC(O)CCC4(C)C3CCC21C (stereo not drawn) [17α-ethynyl-androst-5-ene-3β,17β-diol] | 0.61** | significant binding activity | significant binding activity |  |  |  | 
3 | C#C[C@@]1(O)CC[C@H]2[C@@H]3[C@@H](O)C=C4C[C@H](O)CC[C@]4(C)[C@H]3CC[C@@]21C [Compound 1, 17-Ethynyl-10R,13S-dimethyl 2,3,4,7,8R,9S,10,11,12,13,14S,15,16,17-hexadecahydro-1H-cyclopenta[a]phenanthrene-3R,7R,17S-triol] |  |  |  | no activity | no activity | essentially free of binding activity | estrogenic effects
